pEC50, pIC50: −log10 of the molar value.
How the values were obtained:
[1] = biological target: T1, SIK2 (Homo sapiens, UniProt Q9H0K1); test: ADP-Glo kinase assay, SIK2; type: biochemical
T1 construct: purchased ThermoFisher Scientific PV4792
How it was run: (§1)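 ADP-Glo format, luminescent. Room-temperature kinase reaction lasting 120 min, followed by ATP removal (40 min) and ADP detection (30 min); 10 μM staurosporine serves as full-inhibition control, 1% DMSO as uninhibited control.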

[2] = biological target: T2, SIK3 (Homo sapiens, UniProt Q9Y2K2); test: ADP-Glo kinase assay, SIK3; type: biochemical
T2 construct: purchased SignalChem S12-11G-100
How it was run: as §1

[3] = tested on: LPS triggered IL-10 secretion in monocytes; test: Monocytes assay: LPS-triggered IL-10 (ELISA); type: cell-based, human; details: Homo sapiens, Monocyte, LPS-triggered IL-10 induction, median maximal fold change vs LPS only, read-out: IL-10 FCmax median
Experimental: (§2) This assay evaluates illustrative compounds of the invention for their inhibition of LPS-induced TNFα and LPS triggered IL-10 secretion in monocytes.
(§3) PBMCs are isolated from human blood samples (buffycoats). The buffy coat is aseptically transferred into a 50 mL Falcon tube, and diluted 1/2 in PBS. Falcon tubes are filled with 20 mL Lymphoprep™, on top of which 25 mL of the buffy coat is carefully added, tubes are centrifuged for 35 min at 400 g in temperature controlled centrifuge, without brake, at 25° C. PBMCs are aspirated from the white interface layer between sample and Lymphoprep™. PBMCs are washed five times in PBS.
(§4) PBMCs are centrifuged at 300×g for 10 min and resuspended at a density of 1.0*10^7 cells/80 μL Miltenyi buffer (PBS, pH 7.4, 1% FBS, 2 mM EDTA).
(§5) Starting from this point of the protocol all steps are performed on ice. 20 μL of CD14+ micro-beads are added per 1.0*10^7 cells, the tube is mixed and incubated for 15 min in the fridge at 4° C. Cell suspension volume is adjusted to total volume of 100 mL using Miltenyi buffer, mixed gently and subsequently centrifuged for 10 min at 300×g. Supernatant is discarded and cell pellet is resuspended in 12 mL of Miltenyi buffer.
(§6) Four LS columns are placed in the MACS Separator (magnet) from Miltenyi Biotec, and are prewet by rinsing with 3 mL of MACS buffer per column. Three mL of cell suspension is added onto the column (max 1*10^8 of labelled cells/column), and columns are subsequently washed 3 times with 3 mL of Miltenyi buffer.
(§7) The columns are removed from the magnets, and 5 mL of Miltenyi buffer are added to the column to flush out the CD14+ fraction by pushing the plunger into the column. The flushed fractions are collected in a fresh 50 mL Falcon and volume is adjusted to 30 mL using Miltenyi buffer, cells are centrifuged for 10 min at 300×g. The obtained cell pellet is resuspended in 10 mL RPMI w/o FBS, and cell density is determined using a hematologic analyser (Sysmex XS-500i).
(§8) A compound dilution plate is made in 100% DMSO by 3-fold dilution of 10 mM stock solution. An intermediate dilution plate (10× final concentration) is made by diluting the compound dilution plate 50-fold in RPMI medium.
(§9) 10 μL of the 10× final concentration compound is added to the cells and incubated for 1 h at 37° C. before addition of trigger. No trigger conditions/trigger conditions are spiked with equal final DMSO concentrations of 0.2% DMSO. 10 μL of 10×LPS (final conc. 200 ng/mL) solution are added to all wells except for the ‘no trigger wells’ where 10 μL medium is added. Supernatant is collected after 4 h of LPS triggering.
A Lumitrac 600 Greiner 384-well plate is coated with 40 μL of capture antibody (final concentration of 1 μg/mL in 1×PBS) and stored overnight at 4° C. The next day the plate is washed three times with PBST (PBS+0.05% Tween20) and once with PBS followed by the addition of 100 μL of blocking buffer (1% BSA-5% Sucrose) and plates are sealed and incubated for at least 4 h at RT. After washing the plate once with PBST and once with PBS, 40 μL of standard or sample are added (IL-10 standard curve is prepared using a 1/2 serial dilution starting from 2000 pg/mL; dilutions are made in dilution buffer (PBS+1% BSA)). […] Plates are washed twice with PBST, and once with PBS, whereafter 35 μL of Strep-HRP conjugate (0.5 μg/mL final concentration diluted in dilution buffer) is added. Plates are incubated in the dark, at RT for at least 45 min but no longer than 1 h. Plates are washed twice with PBST, and once with PBS. Thereafter, 50 μL of luminol substrate is added to each well (prepared according to manufacturer's instructions), and incubated for 5 min at RT protected from light.
To quantify these increases, fold changes (FC) compared to ‘LPS only’ are calculated for each concentration tested and the maximal FC is calculated (IL-10 FCmax): […]

[4] = biological target: T3, SIK1 (Homo sapiens, UniProt P57059); test: ADP-Glo kinase assay, SIK1; type: biochemical
T3 construct: purchased Carna Biosciences 02-131
How it was run: as §1

[5] = tested on: LPS-induced TNFα in monocytes; test: Monocytes assay: LPS-triggered TNFα (ELISA); type: cell-based, human; details: Homo sapiens, Monocyte, LPS-triggered TNFα inhibition
Experimental: as §2, §3, §4, §5, §6, §7, §8, §9
The plate is then washed once with PBST (PBS+0.05% Tween20) and once with PBS followed by the addition of 100 μL of blocking buffer (1% Bovine Serum Albumin (BSA)-5% Sucrose) and plates are sealed and incubated for at least 4 h at RT. After washing the plate once with PBST and once with PBS, […]. Plates are washed twice with PBST, and once with PBS, after which 35 μL of the detection antibody is added (final concentration 0.25 μg/mL diluted in dilution buffer) and plates are incubated for at least 2 h at RT. Plates are washed twice with PBST, and once with PBS, whereafter 35 μL of Strep-HRP conjugate (0.5 μg/mL final concentration diluted in dilution buffer) is added. Plates are incubated in the dark, at RT for at least 45 min but no longer than 1 h. Plates are washed twice with PBST, and once with PBS. Thereafter, 50 μL of luminol substrate is added to each well (prepared according to manufacturer's instructions), and incubated for 5 min at RT protected from light.
To measure the inhibition of LPS induced TNFα, percentage inhibition (PIN) values are calculated for all concentrations tested, compared to controls.

[6] = tested on: LPS-induced TNFα in monocyte-derived macrophages; test: MdM assay: LPS-triggered TNFα (ELISA); type: cell-based, human; details: Macrophage; human MdM; LPS 200 ng/mL; supernatant after 20 h; inhibition of TNFα; read-out: TNFα EC50
Experimental: This assay evaluates illustrative compounds of the invention for their inhibition of LPS-induced TNFα and LPS triggered IL-10 secretion in monocyte-derived macrophages. PBMCs are isolated from human blood samples (buffycoats). The buffy coat is aseptically transferred into a 50 mL Falcon tube, and diluted 1/2 in PBS. Falcon tubes are filled with 20 mL LymphoprepTM, on top of which 25 mL of the buffy coat is carefully added, tubes are centrifuged for 35 min at 400 g in temperature controlled centrifuge, without brake, at 25° C. PBMCs are aspirated from the white interface layer between sample and LymphoprepTM. PBMCs are washed five times in PBS. […] PBMCs are centrifuged at 300×g for 10 min and resuspended at a density of 1.0*10^7 cells/80 μL Miltenyi buffer (PBS, pH 7.4, 1% FBS, 2 mM EDTA). Starting from this point of the protocol all steps are performed on ice. 20 μL of CD14+ micro-beads are added per 1.0*10^7 cells, the tube is mixed and incubated for 15 min in the fridge at 4° C. Cell suspension volume is adjusted to total volume of 100 mL using Miltenyi buffer, mixed gently and subsequently centrifuged for 10 min at 300×g. Supernatant is discarded and cell pellet is resuspended in 12 mL of Miltenyi buffer. Four LS columns are placed in the MACS Separator (magnet) from Miltenyi Biotec, and are prewet by rinsing with 3 mL of MACS buffer per column. Three mL of cell suspension is added onto the column (max 1*10^8 of labelled cells/column), and columns are subsequently washed 3 times with 3 mL of Miltenyi buffer. The columns are removed from the magnets, and 5 mL of Miltenyi buffer are added to the column to flush out the CD14+ fraction by pushing the plunger into the column. The flushed fractions are collected in a fresh 50 mL Falcon and volume is adjusted to 30 mL using Miltenyi buffer, cells are centrifuged for 10 min at 300×g. The obtained cell pellet is resuspended in 10 mL RPMI w/o FBS, and cell density is determined using a hematologic analyser (Sysmex XS-500i). […] On day 10, MdMs are triggered and compound is added. A compound dilution plate is made in 100% DMSO by 3-fold dilution of 10 mM stock solution. An intermediate dilution plate (10× final concentration) is made by diluting the compound dilution plate […] in RPMI medium. Medium is carefully removed from cell plates using multichannel pipette, and replaced by 80 μL fresh medium. 10 μL of the 10× final concentration compound is added to the cells and incubated for 1 hour at 37° C. before addition of trigger. No trigger conditions/trigger conditions are spiked with equal final DMSO concentrations of 0.2% DMSO. 10 μL of 10×LPS (final conc. 200 ng/mL) solution are added to all wells except for the 'no trigger wells' where 10 μL medium is added. Supernatant is collected after 2 h (IL-10 determination) and after 20 h (TNFα determination) of LPS triggering. […] The plate is then washed once with PBST (PBS+0.05% Tween20) and once with PBS followed by the addition of 100 μL of blocking buffer (1% Bovine Serum Albumin (BSA) -5% Sucrose) and plates are sealed and incubated for at least 4 h at RT. After washing the plate once with PBST and once with PBS, 40 μL of standard or sample are added (TNFα standard curve is prepared using a 1/2 serial dilution starting from 16000 pg/mL; dilutions are made in dilution buffer (PBS+1% BSA)). Plates are washed twice with PBST, and once with PBS, after which 35 μL of the detection antibody is added (final concentration 0.25 μg/mL diluted in dilution buffer) and plates are incubated for at least 2 h at RT. Plates are washed twice with PBST, and once with PBS, where after 35 μL of Strep-HRP conjugate (0.5 μg/mL final concentration diluted in dilution buffer) is added. […] Plates are washed twice with PBST, and once with PBS. Thereafter, 50 μL of luminol substrate is added to each well (prepared according to manufacturer's instructions), and incubated for 5 min at RT protected from light.

T1 sequence (Q9H0K1 whole entry): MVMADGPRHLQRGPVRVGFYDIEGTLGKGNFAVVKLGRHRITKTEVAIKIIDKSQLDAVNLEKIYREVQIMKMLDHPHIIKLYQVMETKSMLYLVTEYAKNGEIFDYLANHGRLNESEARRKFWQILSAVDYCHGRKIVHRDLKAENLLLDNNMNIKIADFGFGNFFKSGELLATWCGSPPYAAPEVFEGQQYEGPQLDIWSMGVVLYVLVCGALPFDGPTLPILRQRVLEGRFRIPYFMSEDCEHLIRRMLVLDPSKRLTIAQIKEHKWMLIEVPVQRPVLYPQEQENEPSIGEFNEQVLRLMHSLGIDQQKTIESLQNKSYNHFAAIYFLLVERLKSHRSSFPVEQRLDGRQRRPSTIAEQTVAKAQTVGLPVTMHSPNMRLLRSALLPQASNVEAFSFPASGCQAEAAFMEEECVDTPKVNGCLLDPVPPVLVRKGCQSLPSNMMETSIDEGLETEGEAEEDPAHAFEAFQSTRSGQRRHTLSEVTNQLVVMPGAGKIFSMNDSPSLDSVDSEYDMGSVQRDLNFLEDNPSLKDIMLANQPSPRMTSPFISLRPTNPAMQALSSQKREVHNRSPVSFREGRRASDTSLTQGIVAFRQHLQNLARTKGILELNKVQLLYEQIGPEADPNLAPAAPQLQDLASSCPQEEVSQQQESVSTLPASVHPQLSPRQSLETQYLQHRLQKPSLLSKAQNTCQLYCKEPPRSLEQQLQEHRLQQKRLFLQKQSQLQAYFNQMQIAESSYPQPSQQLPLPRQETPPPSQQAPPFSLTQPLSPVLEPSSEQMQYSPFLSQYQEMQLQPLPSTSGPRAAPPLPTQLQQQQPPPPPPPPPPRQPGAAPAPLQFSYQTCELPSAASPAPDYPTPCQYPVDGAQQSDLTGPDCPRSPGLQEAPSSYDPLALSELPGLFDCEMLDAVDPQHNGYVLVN
T2 sequence (Q9Y2K2 59-365 limits assumed): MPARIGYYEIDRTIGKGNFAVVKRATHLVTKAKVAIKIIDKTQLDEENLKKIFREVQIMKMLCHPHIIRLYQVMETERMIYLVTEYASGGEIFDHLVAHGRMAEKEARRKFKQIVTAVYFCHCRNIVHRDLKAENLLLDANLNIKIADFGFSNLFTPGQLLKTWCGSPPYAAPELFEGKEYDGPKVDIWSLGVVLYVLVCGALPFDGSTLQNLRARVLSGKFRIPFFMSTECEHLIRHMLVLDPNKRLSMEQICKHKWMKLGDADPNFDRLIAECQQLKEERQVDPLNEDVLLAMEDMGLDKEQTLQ
T3 sequence (P57059 whole entry): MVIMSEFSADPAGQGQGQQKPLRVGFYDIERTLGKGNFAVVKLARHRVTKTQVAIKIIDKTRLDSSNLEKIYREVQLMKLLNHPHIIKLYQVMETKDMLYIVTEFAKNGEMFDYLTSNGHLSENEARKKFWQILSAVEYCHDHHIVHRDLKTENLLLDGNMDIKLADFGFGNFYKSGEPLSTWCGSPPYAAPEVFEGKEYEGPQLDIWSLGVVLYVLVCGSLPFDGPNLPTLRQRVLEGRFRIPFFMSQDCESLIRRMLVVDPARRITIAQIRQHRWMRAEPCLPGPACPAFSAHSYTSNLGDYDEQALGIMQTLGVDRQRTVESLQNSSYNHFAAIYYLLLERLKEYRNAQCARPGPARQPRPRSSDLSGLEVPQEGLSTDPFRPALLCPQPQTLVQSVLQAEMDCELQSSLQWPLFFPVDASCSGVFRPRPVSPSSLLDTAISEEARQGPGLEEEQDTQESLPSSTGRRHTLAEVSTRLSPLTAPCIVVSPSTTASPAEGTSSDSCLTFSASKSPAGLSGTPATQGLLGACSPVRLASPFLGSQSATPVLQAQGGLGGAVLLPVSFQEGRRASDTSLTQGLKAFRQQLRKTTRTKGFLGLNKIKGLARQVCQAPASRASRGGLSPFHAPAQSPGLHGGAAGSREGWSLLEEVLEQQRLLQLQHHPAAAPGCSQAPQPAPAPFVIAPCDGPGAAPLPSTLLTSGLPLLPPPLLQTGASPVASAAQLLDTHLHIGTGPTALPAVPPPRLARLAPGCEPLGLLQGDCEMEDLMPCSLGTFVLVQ

Row | SMILES | pIC50 [1] | pIC50 [2] | pIC50 [4] | pEC50 [5] | pEC50 [6] | maximal fold induction [3]
1 | COc1cc(-c2cnc3cc(C(C)(C)C#N)ccn23)cc(OC(F)F)c1C(=O)N[C@@H]1C[C@H]1F (racemic) [Cpd 225, 4-[7-(1-cyano-1-methyl-ethyl)imidazo[1,2-a]pyridin-3-yl]-2-(difluoromethoxy)-N-(2-fluorocyclopropyl)-6-methoxy-benzamide] | < 6.30 | 8.00 to 11.00 | < 6.30 | 6.00 to 7.00 |  | < 1.5
2 | COc1cc(-c2cnn3cc(C(C)(C)C#N)ccc23)cc(OC(F)F)c1C(=O)N[C@@H]1C[C@@H]1F (racemic) [Cpd 233, 4-[6-(1-cyano-1-methyl-ethyl)pyrazolo[1,5-a]pyridin-3-yl]-2-(difluoromethoxy)-N-(2-fluorocyclopropyl)-6-methoxy-benzamide] |  |  |  | 6.00 to 7.00 |  | < 1.5
3 | COc1cc(-c2cnn3cc(C(C)(C)C#N)ccc23)cc(OC(F)F)c1C(=O)N[C@H]1C[C@H]1F [Cpd 234, 4-[6-(1-cyano-1-methyl-ethyl)pyrazolo[1,5-a]pyridin-3-yl]-2-(difluoromethoxy)-N-[(1S,2R)-2-fluorocyclopropyl]-6-methoxy-benzamide] |  |  |  | 6.00 to 7.00 |  | < 1.5

More lines, main results first:

Row | pIC50 [1] | pIC50 [2] | pIC50 [4] | pEC50 [5] | pEC50 [6] | SMILES | maximal fold induction [3]
4 | < 6.30 | 8.00 to 11.00 | < 6.30 |  | 6.00 to 7.00 | COc1cc(-c2cnc3cc(C(C)(C)OC)ccn23)cc(OC(F)F)c1C(=O)NC1CC1 [Cpd 120, N-cyclopropyl-2-(difluoromethoxy)-6-methoxy-4-[7-(1-methoxy-1-methyl-ethyl)imidazo[1,2-a]pyridin-3-yl]benzamide] | 
5 | 6.30 to 7.00 | 7.00 to 8.00 | 6.30 to 7.00 | 6.00 to 7.00 |  | COc1cc(-c2cnc3cc(C(C)(C)F)ccn23)cc(OC(F)F)c1C(=O)NC1CC1 [Cpd 133, N-cyclopropyl-2-(difluoromethoxy)-4-[7-(1-fluoro-1-methyl-ethyl)imidazo[1,2-a]pyridin-3-yl]-6-methoxy-benzamide] | 1.5 to 4.5
6 | < 6.30 | 7.00 to 8.00 | < 6.30 |  | 6.00 to 7.00 | COc1cc(-c2cnc3cc(C(C)(O)C(C)C)ccn23)cc(OC(F)F)c1C(=O)NC1CC1 (centres unmarked) [Cpd 135, N-cyclopropyl-2-(difluoromethoxy)-4-[7-(1-hydroxy-1,2-dimethyl-propyl)imidazo[1,2-a]pyridin-3-yl]-6-methoxy-benzamide] | 
7 | < 6.30 | 7.00 to 8.00 | < 6.30 | 6.00 to 7.00 |  | COc1cc(-c2cnc3cc(C4(O)COC4)ccn23)cc(OC(F)F)c1C(=O)NC1CC1 [Cpd 177, N-cyclopropyl-2-(difluoromethoxy)-4-[7-(3-hydroxyoxetan-3-yl)imidazo[1,2-a]pyridin-3-yl]-6-methoxy-benzamide] | < 1.5
8 | < 6.30 | 7.00 to 8.00 | < 6.30 | 5.30 to 6.00 |  | COc1cc(-c2cnc3cc(C(C)(O)Cn4ccnc4)ccn23)cc(OC(F)F)c1C(=O)NC1CC1 (centres unmarked) [Cpd 181, N-cyclopropyl-2-(difluoromethoxy)-4-[7-(1-hydroxy-2-imidazol-1-yl-1-methyl-ethyl)imidazo[1,2-a]pyridin-3-yl]-6-methoxy-benzamide] | < 1.5
